From ChEMBL document CHEMBL1126912 (J Med Chem, 1993)

How the values were obtained:
[1] = molecular target: T1, Muscarinic acetylcholine receptor M4 (Rattus norvegicus, UniProt P08485); assay: Affinity constant measured against M4 muscarinic receptor rat NG108-15 cells; type: cell-based
T1 sequence (P08485 whole entry): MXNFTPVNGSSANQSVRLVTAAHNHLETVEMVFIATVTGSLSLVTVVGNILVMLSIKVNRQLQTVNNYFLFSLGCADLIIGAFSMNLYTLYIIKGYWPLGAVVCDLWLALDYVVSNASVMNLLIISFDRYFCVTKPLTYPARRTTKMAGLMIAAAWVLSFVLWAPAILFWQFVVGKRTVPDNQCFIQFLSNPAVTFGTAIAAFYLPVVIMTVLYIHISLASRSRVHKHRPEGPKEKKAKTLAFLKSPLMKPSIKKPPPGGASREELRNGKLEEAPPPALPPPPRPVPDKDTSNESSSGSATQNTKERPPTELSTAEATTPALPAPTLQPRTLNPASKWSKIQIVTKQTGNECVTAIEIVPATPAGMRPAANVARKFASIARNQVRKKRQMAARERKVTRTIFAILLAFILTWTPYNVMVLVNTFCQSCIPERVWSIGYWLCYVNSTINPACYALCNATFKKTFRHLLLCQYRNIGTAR

[2] = molecular target: Muscarinic acetylcholine receptor M3 (Rattus norvegicus, UniProt P08483); assay: Affinity constant measured against M3 muscarinic receptor in rat submaxillary gland; type: tissue-based
Chain of Muscarinic acetylcholine receptor M3 (Rattus norvegicus, UniProt P08483) (P08483 whole entry): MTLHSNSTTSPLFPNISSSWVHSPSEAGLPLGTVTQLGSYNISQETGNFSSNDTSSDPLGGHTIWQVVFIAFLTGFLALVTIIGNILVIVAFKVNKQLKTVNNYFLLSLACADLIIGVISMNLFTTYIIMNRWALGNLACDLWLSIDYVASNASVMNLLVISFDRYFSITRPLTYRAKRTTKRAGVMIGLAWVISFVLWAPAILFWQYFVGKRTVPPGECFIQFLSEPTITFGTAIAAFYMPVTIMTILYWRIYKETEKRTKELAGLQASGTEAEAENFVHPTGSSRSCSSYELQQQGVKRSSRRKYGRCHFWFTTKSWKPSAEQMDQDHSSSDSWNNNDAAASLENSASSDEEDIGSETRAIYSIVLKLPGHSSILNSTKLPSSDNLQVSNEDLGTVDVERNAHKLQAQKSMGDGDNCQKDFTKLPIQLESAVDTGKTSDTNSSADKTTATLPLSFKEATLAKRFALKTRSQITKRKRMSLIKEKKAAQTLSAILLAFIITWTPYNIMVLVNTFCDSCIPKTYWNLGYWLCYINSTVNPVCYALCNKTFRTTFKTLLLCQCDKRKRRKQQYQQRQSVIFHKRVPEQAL

[3] = molecular target: Muscarinic acetylcholine receptor M3 (Cavia porcellus, UniProt Q8VH26); assay: Antagonistic activity measured in isolated guinea pig […] (M3 receptor); type: functional, tissue-based; conditions: read-out: pA2 (converted)
Chain of Muscarinic acetylcholine receptor M3 (Cavia porcellus, UniProt Q8VH26) (Q8VH26 whole entry): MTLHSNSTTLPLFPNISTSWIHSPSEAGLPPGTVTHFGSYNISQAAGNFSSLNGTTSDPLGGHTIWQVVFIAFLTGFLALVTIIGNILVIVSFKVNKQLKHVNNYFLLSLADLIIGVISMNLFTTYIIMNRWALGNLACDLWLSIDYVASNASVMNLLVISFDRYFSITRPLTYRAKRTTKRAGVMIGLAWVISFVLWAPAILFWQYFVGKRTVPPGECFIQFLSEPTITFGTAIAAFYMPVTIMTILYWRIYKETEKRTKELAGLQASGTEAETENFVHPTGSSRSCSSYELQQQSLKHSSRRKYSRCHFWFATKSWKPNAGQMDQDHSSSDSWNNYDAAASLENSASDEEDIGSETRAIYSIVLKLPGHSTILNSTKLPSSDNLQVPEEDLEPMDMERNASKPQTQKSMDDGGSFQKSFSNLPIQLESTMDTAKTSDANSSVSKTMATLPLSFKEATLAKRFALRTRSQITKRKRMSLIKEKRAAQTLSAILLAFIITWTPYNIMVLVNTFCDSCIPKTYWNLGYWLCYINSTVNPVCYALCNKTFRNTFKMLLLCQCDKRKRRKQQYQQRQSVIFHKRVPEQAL

[4] = test system: Muscarinic acetylcholine receptors M2 & M3 (Cavia porcellus); assay: Selectivity ratio between atrium (M2) and ileum (M3) was determined
[5] = molecular target: T2, Muscarinic acetylcholine receptor M2 (Homo sapiens, UniProt P08172); assay: Antagonistic activity measured in isolated guinea pig left atrium (M2 receptor); type: functional, tissue-based, Cavia porcellus, Cardiac atrium; conditions: target entry is the homologue from another species; read-out: pA2 (converted)
T2 sequence (P08172 whole entry): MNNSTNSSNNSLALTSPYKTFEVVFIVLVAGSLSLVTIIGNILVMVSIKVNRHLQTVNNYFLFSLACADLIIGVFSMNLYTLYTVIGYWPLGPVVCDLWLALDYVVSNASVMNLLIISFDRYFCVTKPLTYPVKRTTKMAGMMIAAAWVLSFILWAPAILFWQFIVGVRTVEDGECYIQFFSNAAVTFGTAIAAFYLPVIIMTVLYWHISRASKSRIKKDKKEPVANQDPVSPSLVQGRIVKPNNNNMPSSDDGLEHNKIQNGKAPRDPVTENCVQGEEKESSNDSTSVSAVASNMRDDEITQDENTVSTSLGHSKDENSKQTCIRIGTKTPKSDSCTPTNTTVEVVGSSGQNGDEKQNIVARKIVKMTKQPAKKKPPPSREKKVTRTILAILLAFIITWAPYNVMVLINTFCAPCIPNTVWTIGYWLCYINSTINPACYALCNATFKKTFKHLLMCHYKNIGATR

[6] = molecular target: T3, Muscarinic acetylcholine receptor M1 (Rattus norvegicus, UniProt P08482); assay: Affinity constant measured against M1 muscarinic receptor in rat cortex
T3 sequence (P08482 whole entry): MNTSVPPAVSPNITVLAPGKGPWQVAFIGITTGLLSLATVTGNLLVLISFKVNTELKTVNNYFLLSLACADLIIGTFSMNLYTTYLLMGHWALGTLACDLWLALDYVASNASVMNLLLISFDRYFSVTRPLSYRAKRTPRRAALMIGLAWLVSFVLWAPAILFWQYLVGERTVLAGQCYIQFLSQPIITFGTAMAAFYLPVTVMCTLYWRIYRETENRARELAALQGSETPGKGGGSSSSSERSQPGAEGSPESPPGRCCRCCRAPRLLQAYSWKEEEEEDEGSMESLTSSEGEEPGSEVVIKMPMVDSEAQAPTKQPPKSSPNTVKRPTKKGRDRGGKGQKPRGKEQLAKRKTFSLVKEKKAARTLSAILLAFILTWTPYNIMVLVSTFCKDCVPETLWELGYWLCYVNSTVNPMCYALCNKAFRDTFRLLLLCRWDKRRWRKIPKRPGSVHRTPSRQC

| SMILES | Ki [1] [nM] | Ki [2] [nM] | Kb [3] [nM] | Selectivity ratio [4] | Kb [5] [nM] | Ki [6] [nM] |
| --- | --- | --- | --- | --- | --- | --- |
| COc1ccccc1CNCCCCCCNCCCCCCCCNCCCCCCNCc1ccccc1OC [METHOCTRAMINE] | 26.3 | 1100 | 479 |  |  |  |
| COc1ccccc1CNCCCCCCN(C)CCCCCCCCN(C)CCCCCCNCc1ccccc1OC |  |  | 603 | 48 | 12.6 |  |
| CN(CCCCCCCCN(C)CCCCCCNCC(=O)N1c2ccccc2C(=O)Nc2cccnc21)CCCCCCNCC(=O)N1c2ccccc2C(=O)Nc2cccnc21 |  |  | 126 |  | 0.724 |  |
| CN(CCCCCCCCN(C)CCCCCCN(CC(=O)N1c2ccccc2C(=O)Nc2cccnc21)CC(=O)N1c2ccccc2C(=O)Nc2cccnc21)CCCCCCNCC(=O)N1c2ccccc2C(=O)Nc2cccnc21 [TRIPITRAMINE] | 11.7 | 646 | 282 |  |  | 23.4 |
| CCN(CC)CCCCC1CCN(CC(=O)N2c3ccccc3C(=O)Nc3cccnc32)CC1 | 10 | 158 | 251 |  |  | 25.1 |
